According to patent publication EP2221291B1, “CYCLOHEXENONE COMPOUNDS FROM ANTRODIA CAMPHORATA AND PHARMACEUTICAL COMPOSITIONS THEREOF USEFUL FOR TREATING AUTOIMMUNE DISEASES” (Golden Biotechnology Corporation, priority 2007, dated 2009):

What was measured:
[1] = test system: anti-dsDNA antinuclear antibodies in female NZB/WF1 SLE mice; assay: Titers of anti-dsDNA antinuclear antibodies in plasma of SLE mouse model (Mouse Anti-dsDNA IgG ELISA); format: in vivo; conditions: for titer of anti-dsDNA antinuclear antibodies decreased to: week 8, oral once per day (cyclohexenone compounds 50 mg/kg; prednisolone 1.25 mg/kg), reference of the percentage not stated
Method: (§1) Female NZB/WF1 mice spontaneously develop human SLE-like syndromes, such as generation of antinuclear autoantibodies, proteinuria, and renal toxicity to cause death. The disease is more severe in female mice than in male mice; the morbidity of female mice is also higher than that of male mice. Therefore, female NZB/WF1 mice were used for screening anti-SLE drugs in this study.
(§2) Thirty female NZB/WF1 mice (purchased from Jackson Lab, USA) between 12-24 weeks of age were analyzed biweekly to determine proteinuria levels, monthly to assess the titers of antinuclear autoantibody (ANA). The increased titers of ANA and positive response implicated that female NZB/WF1 mice were going to develop SLE and were ready for grouping. At 22 weeks of age, the animals showing the abovementioned syndromes were randomly divided into 3 groups (10 mice per group, water was administered to negative control group, steroid was given to positive control group, and cyclohexenone compounds of Antrodia camphorata was administered to experiment group), and the start time for the experiment was set as week zero. In addition, ten B6 mice (purchased from National Laboratory Animal Center, Taiwan) without SLE syndrome were normal mice served as blank group. Table 1 Treatment of animal groups
(§3) The blank group in Table 1 was B6 mice of no SLE syndrome, which received no treatment and normal diet for natural growth. NZB/WF1 female mice that were able to express SLE syndromes were served in negative control and positive control groups. Mice in the former group received normal water; in the latter were orally medicated with 1.25 mg/kg of prednisolone, the SLE drug. Mice in the experiment group were orally medicated with 50 mg/kg of cyclohexenone compounds from Example 1. The mice were fed with the abovementioned substances once per day starting at 23 weeks of age, and this period of time was referred to as the first week of this experiment. […]
The titers of dsDNA antinuclear antibodies were determined in this study to assess the effects of cyclohexenone compounds from Antrodia camphorata on SLE mice. […]

female NZB/WF1 SLE mice = assay: Changes of proteinuria in SLE mouse model (Bio-Rad protein assay of urine); format: in vivo; conditions: for proteinuria level: after 6 weeks of experiment, oral once per day (cyclohexenone compounds 50 mg/kg; prednisolone 1.25 mg/kg), negative control 89.16 vs. 246 mg/dl
Method: as §1, §2
as §3, with “1.” for “1. The mice were fed with the abovementioned substances once per day starting at 23 weeks of age, and this period of time was referred to as the first week of this experiment.”
SLE patients develop renal inflammation and damage, which cause leakage of protein from kidney into the fluid. […] Ten µl of urine was assayed with Bio-Rad Protein Assay Dye Reagent Concentrate (Bio-Rad Laboratories, USA) and read under […] with an ELISA analyzer to determine the protein concentration with a standard curve.

| Compound | titers of anti-dsDNA antinuclear antibodies compared with negative group ([1]; during 8 weeks of experiment, oral 50 mg/kg once per day) | titer of anti-dsDNA antinuclear antibodies decreased to [1] | proteinuria level (female NZB/WF1 SLE mice) | increase in proteinuria level than that before experiment (female NZB/WF1 SLE mice; after 6 weeks, oral 50 mg/kg once per day, negative control 2.76-fold) |
| --- | --- | --- | --- | --- |
| COC1=C(OC)C(O)C(CC=C(C)CCC=C(C)CCC=C(C)C)C(C)C1=O (stereo not drawn) [4-hydroxy-2,3-dimethoxy-6-methyl-5(3,7,11-trimethyl-dodeca-2,6,10-trienyl)-cyclohex-2-enone] | significantly lower titers | 34% | 118.2 mg/dL | 1.3 fold |
| C[C@]12C=CC(=O)C=C1CC[C@@H]1[C@@H]2[C@@H](O)C[C@@]2(C)[C@H]1CC[C@]2(O)C(=O)CO [prednisolone, reference compound] | – | around 50% | 32.6 mg/dL | – |
